Source: paper PMC4674085, “Towards Prebiotic Catalytic Amyloids Using High Throughput Screening” (PLoS ONE, 2015)
Peptide text beside a SMILES is read from it.

Legend:
[1] = Plate reader 4NPA hydrolysis kinetics of purified peptide amyloids at pH 7.3; type: biochemical; settings: for k cat/K M = k 2 from linear fit to v 0 = [E]0 k 2[S] / k cat/K M / K M / k cat: 4NPA hydrolysis; for k cat/K M = k 2 from linear fit to v 0 = [E]0 k 2[S]: pH 7.3, plate reader A400, triplicate (36 without replicates); for k cat/K M / K M / k cat: pH 7.3 HEPES with zinc(II), 20 μM purified peptide; for k cat/K M: 0.1-1.0 mM 4NPA, 1% CH3CN, A400, Michaelis-Menten fit, triplicate (duplicate for 8, 27, 34, 35); for k cat/K M / k cat: per monomer peptide; for K M / k cat: Michaelis-Menten fit
Experimental: The reaction buffer consisted of the same buffer as the fibrillization buffer without ZnCl2 and with 1.33 mM 4NPA prepared from a 100 mM stock in CH3CN. The samples of the amyloid library were mixed 1:3 with the reaction buffer yielding 40 μM peptide and, when present 250 μM zinc(II). The absorbance measurements were performed in a BMG Pherastar platereader with a 400 nm band-pass filter (10 nm bandwidth) in 96-well Nunclon Delta surface plates or 384-well Greiner Bio-One non-bind black μclear plates.
The kinetics assays performed on the purified peptides were prepared similarly except that the peptide concentration was 20 μM in the reaction. Furthermore, the various substrate concentrations and replicate samples were randomly distributed over the plate to minimize systematic errors. Various 4NPA concentrations (i.e. 0.1 mM, 0.2 mM, 0.4 mM, 0.6 mM, 1.0 mM) were added from a 100 times stock so that the final CH3CN concentration was always 1%. The linear part of the hydrolysis activity was fit with an extinction coefficient of ε = 9700 M^-1cm^-1 and corrected for the background reaction rate of buffer alone (v bg = 5.0 × 10^-6 Ms^-1) to obtain the initial reaction rate v 0. The average of the initial reaction rates at each substrate concentration were then fit to the Michaelis-Menten type kinetics to obtain k cat, K M and k cat/K M always calculated per monomer peptide. The background reaction rate was obtained similarly using 5 replicates.

[2] = Thioflavin T fluorescence (ThT); type: physicochemical; settings: crude peptide fibrillized at 160 μM, mixed 10:1 with 50 μM ThT, ex 440 nm em 480 nm
Experimental: The samples of the amyloid library (50 mM HEPES pH 7.3 or 50 mM NaOAc pH 4) were mixed 10:1 with 50 μM ThT and the increase in fluorescence was measured in a 384-well plate in a BMG Pherastar platereader (ex: 440 nm em: 480 nm). The background signal from the peptides without ThT was subtracted from the one with the ThT present in the sample. Due to the large dynamic range of the signals among the many samples, the measurements were made at two different gain settings to ensure that all of the signals fell within the measureable range.
(§1) Table A and associated data: Biophysical characterization of library
Sequence ThT1 CD2 FTIR3 EM4 ThT CD FTIR EM X-ray5
1. Fold increase in ThT ﬂuorescence over background. […]

[3] = Transmission electron microscopy (TEM) of fibrils; type: physicochemical; design: key: +: ﬁbrils present; −: absent in EM micrographs; settings: uranyl acetate stain
Experimental: The samples of the amyloid library (50 mM HEPES pH 7.3 or 50 mM NaOAc pH 4) were applied directly to glow-discharged carbon-coated grids, washed and then stained with uranyl acetate. Images were recorded on a Philips CM 12 electron microscope.
as §1
(§2) Sequence ThT1 CD2 FTIR3 EM4 ThT CD FTIR EM X-ray5 […]
4. (+) ﬁbrils present or (−) absent in EM micrographs. […]

[4] = ATR-FTIR, amide I peak of aggregates; type: physicochemical; design: key: indicates that no peak was observed within the typical range of stretching frequencies forβ-structure (between dashed lines at 1638 cm−1 and 1615 cm−1); settings: air-dried pellet, crude peptide
Experimental: Samples were prepared as for the CD measurements, but instead of re-suspending the samples after centrifugation, 3 μl of H2O were added to the pellet so that it could be placed onto the diamond ATR cell of a Bruker Alpha-p ATR-FTIR spectrometer followed by air-drying before measuring the spectra. Blank subtraction was performed with an empty cell (air) and all measurements were performed without the pressure applicator.
as §1, §2
(§3) 3. The peak position in amide I region is given in cm−1. […]

[5] = Circular dichroism (CD), secondary structure of aggregates; type: physicochemical; design: key: β+: has minimum near 217 nm; β++: has minimum near 217 nm and a maximum near 197 nm; −: signal too weak to interpret; ?: spectra not typical of any secondary structure
Experimental: The concept of creating an amyloid library out of a peptide library is only meaningful if the vast majority of the peptides actually form amyloids in at least one of the conditions tested. To establish the validity of our amyloid library we measured circular dichroism (CD), Fourier transform infrared spectroscopy (ATR-FTIR), as well as thioflavin T (ThT) fluorescence of peptides 1–33 at pH 7.3 (50 mM HEPES) and pH 4 (50 mM NaOAc) (see interactive Table A and associated data in S1 File). Based on the analysis of the CD and ATR-FTIR spectra (shown in the interactive Table A in S1 File) all the peptides formed β-structured aggregates in at least one condition. Most of the 33 peptides induced a significant increase in ThT fluorescence in at least one condition. […] The fibrils from a selection of the active peptides were aligned and analyzed by X-ray diffraction (Figures C and D in S1 File). In each case we observed the cross-β diffraction pattern typical of amyloid fibrils, although the degree of sample alignment varied. For two samples, 14 and 27, the difference in meridional and equatorial diffraction intensities was small but easily detected in a plot of the angular dependence of the intensity (Figure D in S1 File). The conclusion that can be drawn out of the multiple analysis techniques is that the 33 peptides that comprise the library are overwhelmingly prone to form fibril-like, β-structured aggregates. The cross-β diffraction of the tested aggregates would imply that they are more specifically all amyloidogenic.
CD measurements were carried out on a Jasco J815. Samples were prepared by centrifuging the amyloid library at 25,000 g for 10 min and then removing the supernatant. The pellets were resuspended at an approximate concentration of 100 μg/ml in 10 mM HEPES pH 7.3 (for mixtures from 50 mM HEPES) or 10 mM NaOAc pH 4 (for mixtures from 50 mM NaOAc), the suspensions were then treated with an ultrasonic probe for 5 s, upon which the solutions were placed in 1 mm cuvettes, diluted as necessary to maintain the detector voltage below 600 V and scanned from 260–190 nm at 50 nm/min, 1 nm band-pass, 2 second integration, averaged over 3 repetitions.
as §1, §2
2. […]

[6] = Aggregation at pH 4 from soluble material left after 100,000 g centrifugation; type: physicochemical; settings: 40 μM purified peptide, pH 4, soluble material in supernatant of 100,000 g centrifugation
[7] = NMR-based 4NPA hydrolysis assay at pH 4.3; type: biochemical; settings: 4NPA hydrolysis by 1D-1H NMR, 50 mM d3-NaOAc pH 4.3, 2% d6-DMSO, 40 μM total purified peptide (mixture 20 μM each), 0.9 mM 4NPA, 25°C, over 15 days, first order fit, no zinc(II)
Experimental: Purified peptides were solubilized in deuterated DMSO with 1% TFA at a concentration of 4 mM and subsequently diluted to 160 μM in 50 mM deuterated NaOAc buffer at pH 4.3. In the case of the peptide mixture fibrillization (12/21), each peptide was 80 μM. Fibrillization occurred over 5 days after which the sample was diluted to 40 μM total peptide in 50 mM buffer with 0.9 mM 4NPA (from a 90 mM stock solution in d6-DMSO) and a final concentration of d6-DMSO of 2%. From this reaction mixture 500 μl was transferred to a 5 mm NMR tube and measurements were performed in a 600 MHz Bruker NMR spectrometer equipped with a cryo-probe.
The hydrolysis kinetics were monitored in a continuous series of 1D-^1H experiments each consisting of 32 scans at 25°C and each requiring 17 min. In this manner, several time segments lasting between 8 and 17 hours were collected over a period of 15 days. Between measurements, the samples were kept at 25°C.
Data processing and peak integration was performed with Topspin3.2 (Bruker). Relevant peaks used for the analysis were the 4 aromatic protons of both 4NPA and of its product (p-nitrophenol) as well as the methyl groups of 4NPA and acetic acid. The ratio of the sum of integrals for the product protons to the sum of integrals for all protons was used to calculate the substrate concentration. […]

[8] = X-ray fiber diffraction of aligned fibrils; type: physicochemical; settings: washed pellets dried between glass capillaries, room temperature
Experimental: The samples were centrifuged, the pellet resuspended (ultrapure water or 10 mM NaOAc pH 4) and centrifuged again. The washed pellets were resuspended in a minimal amount of water and 4 μl of the suspension were pipetted between the melted ends of two glass capillaries, which were then left to dry overnight in a sealed petri dish. The dried material was placed in an X-ray beam (Rigaku MicroMax-007HF) at room temperature for a 20 min exposure and diffraction data was collected on a Mar345 image plate detector.
Table A and associated data: Biophysical characterization of library […]
1. Fold increase in ThT ﬂuorescence over background.
2. CD spectra classiﬁed as follows: (β+) has minimum near 217 nm, (β++) has minimum near 217 nm and a maximum near 197 nm, (−) signal too weak to interpret, (?) spectra not typical of any secondary […]
as §3
within the typical range of stretching frequencies forβ-structure (between dashed lines at 1638 cm−1 and […]
4. (+) ﬁbrils present or (−) absent in EM micrographs.
5. Diﬀraction images recorded for the aligned ﬁbrils of 5 diﬀerent peptides (see materials and methods).

[9] = pH 4.0, pellet (25,000 g, 10 min) resuspended ~100 μg/ml in 10 mM NaOAc pH 4, crude peptide
[10] = pH 7.3, pellet (25,000 g, 10 min) resuspended ~100 μg/ml in 10 mM HEPES pH 7.3, crude peptide

Compound	ThT, fold increase in ThT fluorescence over background ([2]; pH 4.0, 50 mM NaOAc)	ThT, fold increase in ThT fluorescence over background ([2]; pH 7.3, 50 mM HEPES)	EM, fibrils in EM micrographs ([3]; pH 7.3, 50 mM HEPES)	FTIR peak position in amide I region ([4]; pH 4.0 (50 mM NaOAc))	FTIR peak position in amide I region ([4]; pH 7.3 (50 mM HEPES))	CD spectrum class [5, 9]	CD spectrum class [5, 10]	k cat/K M = k 2 from linear fit to v 0 = [E]0 k 2[S] [1]	k cat/K M [1]	K M [1]	k cat [1]	other results
c1c[nH]cn1 [Imidazole, reference compound]								0.199 ± 0.008 M⁻¹ s⁻¹				
CC(=O)N[C@@H](Cc1c[nH]cn1)C(=O)NCC(=O)N[C@@H](Cc1c[nH]cn1)C(N)=O [Peptide 36, Ac-HGH-CONH2] (Ac-His-Gly-His-NH2)								0.041 ± 0.005 M⁻¹ s⁻¹				zinc(II) dependence of 4NPA hydrolysis activity ([1]; pH 7.3): not zinc(II)-dependent
Ac-IHIHIQI-NH2 [Peptide 34, Ac-IHIHIQI-CONH2, reference compound]									15.76 ± 0.96 M⁻¹ s⁻¹	1570 ± 290 µM	2.47±0.32 10^-2s^-1	
Ac-YVHVSVHV-NH2 [Peptide 10, Ac-YVHVSVHV-CONH2]	1 fold	29 fold	+	−	1623 cm⁻¹	−	β+	0.172 ± 0.003 M⁻¹ s⁻¹				

Further lines, with some results ahead:

ThT, fold increase in ThT fluorescence over background ([2]; pH 4.0, 50 mM NaOAc)	ThT, fold increase in ThT fluorescence over background ([2]; pH 7.3, 50 mM HEPES)	EM, fibrils in EM micrographs ([3]; pH 7.3, 50 mM HEPES)	FTIR peak position in amide I region ([4]; pH 4.0 (50 mM NaOAc))	FTIR peak position in amide I region ([4]; pH 7.3 (50 mM HEPES))	CD spectrum class [5, 9]	CD spectrum class [5, 10]	Compound	k cat/K M = k 2 from linear fit to v 0 = [E]0 k 2[S] [1]	k cat/K M [1]	K M [1]	k cat [1]	other results
1 fold	114 fold	+	−	1624 cm⁻¹	−	β+	Ac-YVHVAVHV-NH2 [Peptide 28, Ac-YVHVAVHV-CONH2]		0.215 ± 0.007 M⁻¹ s⁻¹	1950 ± 230 µM	0.042±0.004 10^-2s^-1	
5 fold	183 fold		1621 cm⁻¹	1623 cm⁻¹		β++	Ac-YVSVSVHV-NH2 [Peptide 12, Ac-YVSVSVHV-CONH2]					EM, fibrils in EM micrographs ([3]; pH 4.0, 50 mM NaOAc): +; aggregation behaviour at pH 4 [6]: began to aggregate within minutes; k cat/K M [7]: 6145.6±8.5 10^-6M^-1s^-1; X-ray diffraction of aligned fibrils [8]: cross-β
